Key:
[1] = target: T1, Steroid 17-alpha-hydroxylase/17,20 lyase (Homo sapiens, UniProt P05093); test: Inhibition of CYP17 in human testicular microsomes using 17alpha-hydroxypregnenolone as substrate assessed as decrease in DHEA levels after 90 mins by ELISA; design: species or system Testis
T1 sequence (P05093 whole entry): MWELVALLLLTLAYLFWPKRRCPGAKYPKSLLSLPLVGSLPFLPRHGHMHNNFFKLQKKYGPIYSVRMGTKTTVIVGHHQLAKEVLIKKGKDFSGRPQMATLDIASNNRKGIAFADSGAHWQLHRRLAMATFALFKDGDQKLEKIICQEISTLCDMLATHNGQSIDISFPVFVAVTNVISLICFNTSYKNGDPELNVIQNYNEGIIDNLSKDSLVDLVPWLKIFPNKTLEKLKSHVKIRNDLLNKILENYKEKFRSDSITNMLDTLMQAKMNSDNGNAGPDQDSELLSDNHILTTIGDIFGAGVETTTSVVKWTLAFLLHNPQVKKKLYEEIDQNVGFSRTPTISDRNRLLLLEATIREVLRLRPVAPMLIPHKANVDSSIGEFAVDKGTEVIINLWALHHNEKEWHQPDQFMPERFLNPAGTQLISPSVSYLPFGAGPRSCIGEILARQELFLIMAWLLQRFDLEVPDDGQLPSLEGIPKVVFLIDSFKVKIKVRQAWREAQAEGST

[2] = target: T1, Steroid 17-alpha-hydroxylase/17,20 lyase; test: Inhibition of CYP17 in human testicular microsomes using 17alpha-hydroxypregnenolone as substrate assessed as decrease in DHEA levels at 1 nM after 90 mins by ELISA relative to control; design: species or system Testis
[3] = target: T2, CYP21 (steroid 21-hydroxylase) (Homo sapiens, UniProt P08686); test: Inhibition of human CYP21 transfected in HEK293 cells assessed as decrease in conversion of progesterone to 11-deoxycorticosterone preincubated for 5 hrs followed by progesterone addition measured after 20 hrs by ELISA; assay type: cell-based; design: concentration or dose not given beside the values; conditions: HEK293 cells transfected with human CYP21, probe progesterone
T2 sequence (P08686 whole entry): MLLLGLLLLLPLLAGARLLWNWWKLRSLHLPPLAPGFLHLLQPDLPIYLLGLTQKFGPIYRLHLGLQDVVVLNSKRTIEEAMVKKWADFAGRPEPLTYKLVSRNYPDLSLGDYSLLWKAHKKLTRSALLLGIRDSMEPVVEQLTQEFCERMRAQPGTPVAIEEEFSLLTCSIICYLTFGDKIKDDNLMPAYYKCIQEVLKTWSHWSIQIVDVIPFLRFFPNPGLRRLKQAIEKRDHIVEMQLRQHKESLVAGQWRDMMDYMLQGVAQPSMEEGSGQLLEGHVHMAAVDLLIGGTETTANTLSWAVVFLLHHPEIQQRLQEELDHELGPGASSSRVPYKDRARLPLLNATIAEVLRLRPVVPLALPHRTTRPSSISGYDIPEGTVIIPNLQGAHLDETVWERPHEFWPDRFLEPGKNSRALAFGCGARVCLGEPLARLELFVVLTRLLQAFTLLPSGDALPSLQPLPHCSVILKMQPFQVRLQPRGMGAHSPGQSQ

[4] = target: T1, Steroid 17-alpha-hydroxylase/17,20 lyase; test: Inhibition of CYP17 in human testicular microsomes using 17alpha-hydroxypregnenolone as substrate assessed as decrease in DHEA levels at 10 nM after 90 mins by ELISA relative to control; design: species or system Testis; conditions: 1.5 h
[5] = target: T1, Steroid 17-alpha-hydroxylase/17,20 lyase; test: Inhibition of CYP17 in human H295R cells assessed as decrease in testosterone levels after 24 hrs by ELISA; assay type: cell-based
[6] = Half life in human liver microsomes at 1 uM by LC-MS/MS analysis
[7] = Half life in rat liver microsomes at 1 uM by LC-MS/MS analysis

SMILES	IC50 [1] [nM]	IC50 [2] [nM]	inhibition at 20 h [3] [%]	inhibition at 0.01 µM [4] [%]	IC50 [5] [nM]	half-life at 1 µM [6] [min]	half-life at 1 µM [7] [min]
CC1C[C@@H]2[C@H](CC[C@]3(C)C(c4cncc(F)c4)=CC[C@@H]23)[C@@]2(C)C=CC(=O)C=C12 (some centres not stated)	≤ 11	10 to 100	≥ 50	–	–	–	–
C[C@]12CC[C@H]3[C@@H](CC(C4CC4)C4=CC(=O)CC[C@@]43C)C1=CC=C2c1cccnc1 (some centres not stated)	–	> 100	10 to 50	–	–	–	–
CC(=O)O[C@H]1CC[C@@]2(C)[C@@H](CC[C@@H]3[C@@H]2CC[C@]2(C)C(n4ccnn4)=CC[C@@H]32)C1	≤ 11	–	–	≥ 80	≤ 15	–	–
C[C@@]1(O)CC[C@@]2(C)C(CC[C@@H]3[C@@H]2CC[C@]2(C)C(c4cncc(F)c4)=CC[C@@H]32)C1 (some centres not stated)	≤ 11	–	–	–	≤ 15	1 to 50	–
C[C@]12CCC(=O)C=C1C=C[C@@H]1[C@@H]2CC[C@]2(C)C(c3cncc(F)c3)=CC[C@@H]12	≤ 11	–	≥ 50	–	≤ 15	1 to 50	–
C[C@]12CCNC(=O)C[C@@H]1CC[C@@H]1[C@@H]2CC[C@]2(C)C(n3ccnn3)=CC[C@@H]12	≤ 11	–	–	≥ 80	≤ 15	≥ 50	10 to 60
C[C@]12CC(O)CC1CC[C@@H]1[C@@H]2CC[C@]2(C)C(c3cccnc3)=CC[C@@H]12 (some centres not stated)	≤ 11	–	≥ 50	–	≤ 15	1 to 50	–
C[C@]12CC[C@H]3[C@@H](CC4(CC4)C4=CC(=O)CC[C@@]43C)C1=CC=C2c1cccnc1	–	≤ 10	–	–	–	–	–
C[C@]12CC[C@H]3[C@@H](CC4(CC4)C4=CC(=O)CC[C@@]43C)C1=CC=C2c1cncc(F)c1	–	10 to 100	–	–	–	–	–
CN1CC[C@@]2(C)C(=CC1=O)CC[C@H]1C3=CC=C(c4cncc(F)c4)[C@@]3(C)CC[C@@H]12	–	> 100	–	–	–	–	–
C=C1C[C@H]2C3=CC=C(c4cncc(F)c4)[C@@]3(C)CC[C@@H]2[C@@]2(C)CCC(=O)C=C12	–	10 to 100	–	–	–	–	–
C[C@]12CCC(F)CC1=CC[C@@H]1[C@@H]2CC[C@]2(C)C(c3cncc(F)c3)=CC[C@@H]12 (some centres not stated)	≤ 11	–	–	–	≤ 15	≥ 50	–
C[C@]12CCNC(=O)C=C1C1CC1[C@@H]1[C@@H]2CC[C@]2(C)C(c3cncc(F)c3)=CC[C@@H]12 (some centres not stated)	≤ 11	–	≥ 50	–	≤ 15	1 to 50	–
C[C@]12CC/C(=N\O)C=C1C1(CC1)C[C@@H]1[C@@H]2CC[C@]2(C)C(c3cccnc3)=CC[C@@H]12	–	> 100	10 to 50	–	–	–	–
CCC1C[C@@H]2[C@H](CC[C@]3(C)C(c4cccnc4)=CC[C@@H]23)[C@@]2(C)CCC(=O)C=C12 (some centres not stated)	–	10 to 100	10 to 50	–	–	–	–
C[C@]12CCC(=O)C=C1C(F)CC1[C@@H]2CC[C@]2(C)C(c3cccnc3)=CC[C@@H]12 (single isomer, unassigned)	≤ 11	–	≥ 50	–	≤ 15	1 to 50	–
C=C1C[C@H]2C3=CC=C(c4cccnc4)[C@@]3(C)CC[C@@H]2[C@@]2(C)CCC(=O)C=C12	–	10 to 100	–	–	–	–	–
C[C@]12CC[C@H](O)CC1=CC[C@@H]1[C@@H]2CC[C@]2(C)C(c3cncc(C(F)F)c3)=CC[C@@H]12	≤ 11	–	≥ 50	–	≤ 15	≥ 50	–
C[C@]12CC[C@H]3[C@@H](CC=C4C[C@@H](O)CC[C@@]43C)C1=CC=C2c1cncc(F)c1	≤ 11	–	≥ 50	–	≤ 15	1 to 50	–

SMILES	IC50 [1] [nM]	IC50 [2] [nM]	inhibition at 20 h [3] [%]	inhibition at 0.01 µM [4] [%]	IC50 [5] [nM]	half-life at 1 µM [6] [min]	half-life at 1 µM [7] [min]
C[C@]12CCCC(=O)C1CC[C@@H]1[C@@H]2CC[C@]2(C)C(c3cccnc3)=CC[C@@H]12 (some centres not stated)	≤ 11	–	–	≥ 80	≤ 15	–	–
CC(=O)N[C@@H]1CC[C@@]2(C)C(=CC[C@@H]3[C@@H]2CC[C@]2(C)C(c4cccnc4)=CC[C@@H]32)C1	≤ 11	–	≥ 50	–	≤ 15	1 to 50	–
C[C@]12CC[C@H]3[C@@H](CC[C@H]4C[C@@H](O)CC[C@@]43C)C1=CC=C2n1ccnc1	≤ 11	–	–	≥ 80	≤ 15	≥ 50	10 to 60
CC(C)C(=O)N[C@H]1CC[C@@]2(C)C(CC[C@@H]3[C@@H]2CC[C@]2(C)C(c4cccnc4)=CC[C@@H]32)C1 (some centres not stated)	–	–	≥ 50	–	≤ 15	1 to 50	–
COc1cncc(C2=CC=C3[C@@H]4CC=C5C[C@@H](O)CC[C@]5(C)[C@H]4CC[C@]23C)c1	≤ 11	–	–	≥ 80	≤ 15	≥ 50	≥ 50
Cc1ccncc1C1=CC=C2[C@@H]3CC=C4C[C@@H](O)CC[C@]4(C)[C@H]3CC[C@]12C	–	–	≥ 50	–	15 to 100	1 to 50	–
CC1C[C@@H]2[C@H](CC[C@]3(C)C(c4cccnc4)CC[C@@H]23)[C@@]2(C)CCNC(=O)C=C12 (some centres not stated)	–	≤ 10	–	–	–	1 to 50	–
C[C@]12CCNC(=O)C=C1CC[C@@H]1[C@@H]2CC[C@]2(C)C(c3cncc(C(F)F)c3)=CC[C@@H]12	≤ 11	–	≥ 50	–	≤ 15	1 to 50	–
CC1=C2CC[C@H]3C4=CC=C(c5cccnc5)[C@@]4(C)CC[C@@H]3[C@@]2(C)CCC1=O	–	> 100	≥ 50	–	–	–	–
CN1CC[C@@]2(C)C(=CC1=O)C1CC1[C@H]1C3=CC=C(c4cccnc4)[C@@]3(C)CC[C@@H]12 (some centres not stated)	–	10 to 100	–	–	–	–	–
C[C@]12CC[C@H]3[C@@H](CC(F)C4(O)C[C@@H](O)CC[C@]34C)[C@@H]1CC=C2c1cncc(F)c1 (some centres not stated)	≤ 11	–	≥ 50	–	≤ 15	1 to 50	–
C[C@]12CCC(=O)C=C1C1CC1[C@@H]1[C@@H]2CC[C@]2(C)C(c3cncc(F)c3)=CC[C@@H]12 (some centres not stated)	≤ 11	–	≥ 50	–	≤ 15	1 to 50	–
C[C@]12C=C/C(=N\O)C=C1C1(CC1)C[C@@H]1[C@@H]2CC[C@]2(C)C(c3cccnc3)=CC[C@@H]12	–	> 100	10 to 50	–	–	–	–
C[C@]12CC[C@H]3[C@@H](CC4CC45C[C@@H](O)CC[C@]35C)[C@@H]1CC=C2c1cccnc1 (some centres not stated)	≤ 11	–	≥ 50	–	≤ 15	1 to 50	–
C[C@]12CC[C@H]3[C@@H](CC(CO)C4=CC(=O)CC[C@@]43C)C1=CC=C2c1cccnc1 (some centres not stated)	≤ 11	> 100	≥ 50	–	–	–	–
C[C@]12CC(O)CC1CC[C@@H]1[C@@H]2CC[C@]2(C)C(c3cncc(F)c3)=CC[C@@H]12 (some centres not stated)	≤ 11	–	10 to 50	–	≤ 15	≥ 50	–
CC1CC2C3=CC=C(c4cncc(F)c4)[C@@]3(C)CC[C@@H]2[C@@]2(C)CCN(C)C(=O)C=C12 (single isomer, unassigned)	–	> 100	–	–	–	–	–
CC1C[C@H]2C3=CC=C(c4cccnc4)[C@@]3(C)CC[C@@H]2[C@@]2(C)CCN(C)C(=O)C=C12 (some centres not stated)	–	10 to 100	–	–	–	–	–
